Source: patent US11530186B2, “Inhibitors for the β-catenin / T-cell factor protein-protein interaction” (H. LEE MOFFITT CANCER CENTER AND RESEARCH INSTITUTE, INC., priority 2018, dated 2022)

What was measured:
Type in all cases: binding
[1] = target: T1, β-catenin/E-cadherin (Homo sapiens, UniProt P35222); assay: FP selectivity assay, β-catenin/cadherin assay
T1 construct: 150 nM human β-catenin (residues 138-781); 6×histidine (C); made in house; host or cells: E. coli BL21 DE3
T1 sequence (P35222 138-781): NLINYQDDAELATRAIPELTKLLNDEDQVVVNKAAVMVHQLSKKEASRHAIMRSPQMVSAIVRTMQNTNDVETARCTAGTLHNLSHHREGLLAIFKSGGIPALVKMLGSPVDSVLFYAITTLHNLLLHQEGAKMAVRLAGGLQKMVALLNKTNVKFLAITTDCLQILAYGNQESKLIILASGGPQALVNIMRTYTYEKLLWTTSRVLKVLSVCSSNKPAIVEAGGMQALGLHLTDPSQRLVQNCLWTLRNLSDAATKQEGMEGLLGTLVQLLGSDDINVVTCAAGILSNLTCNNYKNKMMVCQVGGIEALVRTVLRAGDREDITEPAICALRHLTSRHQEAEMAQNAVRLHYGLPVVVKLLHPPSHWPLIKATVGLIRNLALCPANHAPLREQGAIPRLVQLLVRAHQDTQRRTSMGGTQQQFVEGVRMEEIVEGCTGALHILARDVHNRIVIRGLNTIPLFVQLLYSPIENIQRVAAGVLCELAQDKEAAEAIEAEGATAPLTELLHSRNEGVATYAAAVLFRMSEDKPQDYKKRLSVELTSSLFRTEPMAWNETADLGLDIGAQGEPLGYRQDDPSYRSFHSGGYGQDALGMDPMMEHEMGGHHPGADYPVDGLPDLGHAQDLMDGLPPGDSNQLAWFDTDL
Experimental: (§1) FP Selectivity Assays. Experiments were performed in 96-well Microfluor 2 black plates on a Synergy 2 plate reader (Biotek). The polarization was measured at room temperature with an excitation wavelength at 485 nm and an emission wavelength at 535 nm. The FP experiments were performed in an assay buffer of 25 mM Hepes (pH 7.4), 100 mM NaCl, 0.01% Triton X-100, and 100 μg/ml γ-globulin. The final reaction volume was set to 100 μL. For the β-catenin/Tcf assay, 10 nM human β-catenin (residues 138-781) was incubated with 2.5 nM C-terminally fluorescein-labeled human Tcf4 (residues 7-51) for 30 min at 4° C., and then different concentrations of the compound in assay buffer were added. […] For the β-catenin/cadherin assay, 150 nM human β-catenin (residues 138-781) was incubated with 5 nM C-terminally fluorescent-labeled human E-cadherin (residues 819-873) in assay buffer for 30 min at 4° C. The negative control refers to 5 nM E-cadherin fluorescence tracer and 150 nM β-catenin in assay buffer with no inhibitor presenting. The positive control refers to 5 nM E-cadherin fluorescence tracer in assay buffer. […] The negative control refers to 5 nM APC-R3 fluorescence tracer and 2,000 nM β-catenin in assay buffer without the tested compound. The positive control refers to 5 nM APC-R3 fluorescence tracer in assay buffer. Each assay plate was covered black and gently mixed on an orbital shaker at 4° C. for 2.5 h to reach equilibrium before the polarization values were read. […] The IC50 values were determined by GraphPad Prism 5.0. […] The results were expressed as mean±standard deviation. The Tcf/cahderin selectivity ratio was calculated on the basis of the respective Ki value of the β-catenin/E-cadherin interaction over that of the β-catenin/Tcf4 interaction. The Tcf/APC selectivity ratio was calculated on the basis of the respective Ki value of the β-catenin/APC-R3 interaction over that of the β-catenin/Tcf4 interaction. […]

[2] = target: T2, β-catenin/Tcf4 (Homo sapiens, UniProt P35222); assay: FP selectivity assay, β-catenin/Tcf assay; conditions: mean ± SD (n = 3)
T2 construct: Wild-type β-catenin (residues 138-781) were cloned into a pET-28b vector; 6×histidine (C); made in house; host or cells: E. coli BL21 DE3
T2 sequence (P35222 138-781): T1 sequence (P35222 138-781)
Experimental: FP Selectivity Assays. Experiments were performed in 96-well Microfluor 2 black plates on a Synergy 2 plate reader (Biotek). The polarization was measured at room temperature with an excitation wavelength at 485 nm and an emission wavelength at 535 nm. The FP experiments were performed in an assay buffer of 25 mM Hepes (pH 7.4), 100 mM NaCl, 0.01% Triton X-100, and 100 μg/ml γ-globulin. The final reaction volume was set to 100 μL. For the β-catenin/Tcf assay, 10 nM human β-catenin (residues 138-781) was incubated with 2.5 nM C-terminally fluorescein-labeled human Tcf4 (residues 7-51) for 30 min at 4° C., and then different concentrations of the compound in assay buffer were added. […] The negative control refers to 5 nM E-cadherin fluorescence tracer and 150 nM β-catenin in assay buffer with no inhibitor presenting. The positive control refers to 5 nM E-cadherin fluorescence tracer in assay buffer. […] The negative control refers to 5 nM APC-R3 fluorescence tracer and 2,000 nM β-catenin in assay buffer without the tested compound. The positive control refers to 5 nM APC-R3 fluorescence tracer in assay buffer. Each assay plate was covered black and gently mixed on an orbital shaker at 4° C. for 2.5 h to reach equilibrium before the polarization values were read. […] The IC50 values were determined by GraphPad Prism 5.0. […] The results were expressed as mean±standard deviation. […]

[3] = target: T3, β-catenin/APC-R3 (Homo sapiens, UniProt P35222); assay: FP selectivity assay, β-catenin/APC-R3 assay
T3 construct: 2000 nM human β-catenin (residues 138-781); 6×histidine (C); made in house; host or cells: E. coli BL21 DE3
T3 sequence (P35222 138-781): T1 sequence (P35222 138-781)
Experimental: as §1

[4] = FP selectivity assay, mean ± SD (n = 3)

Ki [1, 4]: 26 ± 8 µM | selectivity for β-catenin/Tcf over β-catenin/cadherin PPI ([1]; FP selectivity assays): 28 fold | Selectivity Tcf/E-cadherin ([1]; ratio of Ki β-catenin/E-cadherin over Ki β-catenin/Tcf4): 28 | Ki [2]: 0.93 ± 0.51 µM | Ki [3, 4]: 74 ± 11 µM | selectivity for β-catenin/Tcf over β-catenin/APC PPI ([3]; FP selectivity assays): 80 fold | Selectivity Tcf/APC ([3]; ratio of Ki β-catenin/APC-R3 over Ki β-catenin/Tcf4): 80
SMILES: O=C(O)c1ccc2c(c1)c(CCc1ccc(Cl)cc1)c(CCc1nc3ccccc3s1)n2CCc1nn[nH]n1 [Compound 27, 1-(2-(2H-tetrazol-5-yl)ethyl)-2-(2-(benzo[d]thiazol-2-yl)ethyl)-3-(4-chlorophenethyl)-1H-indole-5-carboxylic acid]
